Legend:
[1] = target: porcine DPIV (Sus scrofa, UniProt P22411); assay: Determination of IC50 values against DPIV; assay type: biochemical; details: Gly-Pro-pNA 0.4 mM, APN, 30° C., HEPES pH7.6, read-out: IC50
Description: (§1) 100 μl inhibitor stock solution was mixed with 100 μl buffer (HEPES pH7.6) and 20 μl diluted porcine DPIV and preincubated at 30° C. Reaction was started by addition of a mixture of 50 μl substrate (Gly-Pro-pNA, final concentration 0.4 mM) and 2 μl APN stock solution. Formation of the product pNA was measured at 405 nm and 30° C. over 10 min using the HTS 7000Plus plate reader (Perkin Elmer) and slopes were calculated. The final inhibitor concentrations ranged between 1 mM and 30 nM. For calculation of IC50 GraFit 4.0.13 (Erithacus Software) was used.

[2] = target: T1, plasma DPIV activity (Rattus norvegicus, UniProt P14740); assay: DPIV inhibiting activity after intravasal and oral administration to Wistar rats; assay type: in vivo; details: 100 mg/kg; for In vivo DPIV-inhibition at tmax, i.v.: intra-vasal (intra-arterial); for In vivo DPIV-inhibition at tmax, p.o.: oral
T1 construct: from tissue; host or cells: plasma of Wistar rats
Description: Male Wistar rats (Shoe: Wist(Sho)) with a body weight ranging between 250 and 350 g were purchased from Tierzucht Schönwalde (Schönwalde, Germany).
Animals were single-caged under conventional conditions with controlled temperature (22±2° C.) on a 12/12 hours light/dark cycle (light on at 06:00 AM). Standard pelleted chow (ssniff® Soest, Germany) and tap water acidified with HCl were allowed ad libitum.
After ≧one week of adaptation at the housing conditions, catheters were implanted into the carotid artery of Wistar rats under general anaesthesia (i.p. injection of 0.25 ml/kg b.w. ROMPUN® [2%], BayerVital, Germany and 0.5 ml/kg b.w. Ketamin 10, Atarost GmbH & Co., Twistringen, Germany). The animals were allowed to recover for one week. The catheters were flushed with heparin-saline (100 IU/ml) three times per week. In case of catheter dysfunction, a second catheter was inserted into the contralateral carotid artery of the respective rat. After one week of recovery from surgery, this animal was reintegrated into the study. In case of dysfunction of the second catheter, the animal was withdrawn from the study. A new animal was recruited and the experiments were continued in the planned sequence, beginning at least 7 days after catheter implantation.
Rats with intact catheter function were administered placebo (1 ml saline, 0.154 mol/l) or test compound via the oral and the intra-vasal (intra-arterial) route. After overnight fasting, 100 μl samples of heparinised arterial blood were collected at −30, −5, and 0 min. The test substance was dissolved freshly in 1.0 ml saline (0.154 mol/l) and was administered at 0 min either orally via a feeding tube (75 mm; Fine Science Tools, Heidelberg, Germany) or via the intra-vasal route. In the case of oral administration, an additional volume of 1 ml saline was injected into the arterial catheter. In the case of intra-arterial administration, the catheter was immediately flushed with 30 μl saline and an additional 1 ml of saline was given orally via the feeding tube.
After application of placebo or the test substances, arterial blood samples were taken at 2.5, 5, 7.5, 10, 15, 20, 40, 60 and 120 min from the carotid catheter of the conscious unrestrained rats. All blood samples were collected into ice cooled Eppendorf tubes (Eppendorf-Netheler-Hinz, Hamburg, Germany) filled with 10 μl 1M sodium citrate buffer (pH 3.0) for plasma DPIV activity measurement. Eppendorf tubes were centrifuged immediately (12000 rpm for 2 min, Hettich Zentrifuge EBA 12, Tuttlingen; Germany): The plasma fractions were stored on ice until analysis or were frozen at −20° C. until analysis. […]
Statistical evaluations and graphics were performed with PRISM® 3.02 (GraphPad Software, Inc.). All parameters were analysed in a descriptive manner including mean and SD.

[3] = target: porcine DP II; assay: Inhibition of DPIV-like enzymes: dipeptidyl peptidase II; assay type: biochemical; details: inhibitor 1*10^−4 M-5*10^−8 M, pH7.6
Description: DP II (3.4.14.2) releases N-terminal dipeptides from oligopeptides if the N-terminus is not protonated (McDonald, J. K., Ellis, S. & Reilly, T. J., 1966, J. Biol. Chem., 241, 1494-1501). Pro and Ala in P1-position are preferred residues. The enzyme activity is described as DPIV-like activity, but DP II has an acidic pH-optimum. The enzyme used was purified from porcine kidney.
100 μl inhibitor in a concentration range of 1*10^−4 M-5*10^−8 M was admixed with 100 μl buffer solution (40 mM HEPES, pH7.6, 0.015% Brij, 1 mM DTT), 50 μl lysylalanylaminomethylcoumarine solution (5 mM) and 20 μl porcine DP II (250fold diluted in buffer solution). Fluorescence measurement was performed at 30° C. and λexcitation=380 nm, λemission=465 nm for 25 min using a plate reader (HTS7000plus, Applied Biosystems, Weiterstadt, Germany). The Ki-values were calculated using Graphit 4.0.15 (Erithacus Software, Ltd., UK).

[4] = target: attractin (Homo sapiens, UniProt O75882); assay: Inhibition of DPIV-like enzymes: attractin; assay type: biochemical; details: inhibitor 1 mM to 30 nM, Gly-Pro-pNA 0.4 mM, APN
Description: as §1, with “attractin” for “porcine DPIV”, “IC50 values,” for “IC50”

T1 sequence (P14740 38-767 limits assumed): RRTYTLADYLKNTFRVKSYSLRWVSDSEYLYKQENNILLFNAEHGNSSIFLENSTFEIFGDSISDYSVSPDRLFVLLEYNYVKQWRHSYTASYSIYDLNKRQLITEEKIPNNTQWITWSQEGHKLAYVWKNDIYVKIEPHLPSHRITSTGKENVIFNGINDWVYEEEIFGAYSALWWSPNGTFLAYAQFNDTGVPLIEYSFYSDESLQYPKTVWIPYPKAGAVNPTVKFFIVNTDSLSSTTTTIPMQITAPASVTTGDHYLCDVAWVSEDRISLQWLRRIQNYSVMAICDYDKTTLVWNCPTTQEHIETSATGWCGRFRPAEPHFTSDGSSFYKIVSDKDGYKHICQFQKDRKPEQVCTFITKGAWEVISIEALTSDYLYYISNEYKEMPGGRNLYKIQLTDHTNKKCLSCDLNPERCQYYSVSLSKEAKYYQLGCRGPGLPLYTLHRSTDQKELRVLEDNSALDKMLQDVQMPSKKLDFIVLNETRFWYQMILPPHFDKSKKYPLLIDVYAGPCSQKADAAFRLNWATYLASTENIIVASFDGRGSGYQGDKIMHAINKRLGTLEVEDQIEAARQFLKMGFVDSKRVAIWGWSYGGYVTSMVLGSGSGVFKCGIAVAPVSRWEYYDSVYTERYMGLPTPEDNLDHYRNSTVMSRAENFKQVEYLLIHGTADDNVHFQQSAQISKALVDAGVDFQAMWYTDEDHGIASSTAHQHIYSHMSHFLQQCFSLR
Chain of porcine DPIV (P22411 whole entry): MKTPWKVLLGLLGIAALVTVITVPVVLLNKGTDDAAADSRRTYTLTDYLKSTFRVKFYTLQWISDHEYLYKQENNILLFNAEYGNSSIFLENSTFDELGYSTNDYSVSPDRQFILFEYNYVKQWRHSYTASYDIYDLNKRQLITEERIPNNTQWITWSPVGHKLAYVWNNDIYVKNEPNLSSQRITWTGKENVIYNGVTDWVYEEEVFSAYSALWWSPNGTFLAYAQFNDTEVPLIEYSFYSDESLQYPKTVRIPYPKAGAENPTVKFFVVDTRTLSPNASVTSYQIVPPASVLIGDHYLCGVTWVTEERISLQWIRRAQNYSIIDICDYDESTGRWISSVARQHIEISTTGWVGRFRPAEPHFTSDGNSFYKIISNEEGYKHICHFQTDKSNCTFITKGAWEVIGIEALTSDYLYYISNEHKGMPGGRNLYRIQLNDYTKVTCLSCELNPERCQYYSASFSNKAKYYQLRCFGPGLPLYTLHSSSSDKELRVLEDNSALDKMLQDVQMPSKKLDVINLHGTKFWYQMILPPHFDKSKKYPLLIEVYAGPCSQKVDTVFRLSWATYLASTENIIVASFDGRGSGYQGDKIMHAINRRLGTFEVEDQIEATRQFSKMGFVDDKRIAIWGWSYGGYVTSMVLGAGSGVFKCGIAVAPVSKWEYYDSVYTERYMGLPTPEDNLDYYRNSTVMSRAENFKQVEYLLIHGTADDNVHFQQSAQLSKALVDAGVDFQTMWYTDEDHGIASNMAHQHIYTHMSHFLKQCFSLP
Chain of attractin (O75882 84-1429, species assumed): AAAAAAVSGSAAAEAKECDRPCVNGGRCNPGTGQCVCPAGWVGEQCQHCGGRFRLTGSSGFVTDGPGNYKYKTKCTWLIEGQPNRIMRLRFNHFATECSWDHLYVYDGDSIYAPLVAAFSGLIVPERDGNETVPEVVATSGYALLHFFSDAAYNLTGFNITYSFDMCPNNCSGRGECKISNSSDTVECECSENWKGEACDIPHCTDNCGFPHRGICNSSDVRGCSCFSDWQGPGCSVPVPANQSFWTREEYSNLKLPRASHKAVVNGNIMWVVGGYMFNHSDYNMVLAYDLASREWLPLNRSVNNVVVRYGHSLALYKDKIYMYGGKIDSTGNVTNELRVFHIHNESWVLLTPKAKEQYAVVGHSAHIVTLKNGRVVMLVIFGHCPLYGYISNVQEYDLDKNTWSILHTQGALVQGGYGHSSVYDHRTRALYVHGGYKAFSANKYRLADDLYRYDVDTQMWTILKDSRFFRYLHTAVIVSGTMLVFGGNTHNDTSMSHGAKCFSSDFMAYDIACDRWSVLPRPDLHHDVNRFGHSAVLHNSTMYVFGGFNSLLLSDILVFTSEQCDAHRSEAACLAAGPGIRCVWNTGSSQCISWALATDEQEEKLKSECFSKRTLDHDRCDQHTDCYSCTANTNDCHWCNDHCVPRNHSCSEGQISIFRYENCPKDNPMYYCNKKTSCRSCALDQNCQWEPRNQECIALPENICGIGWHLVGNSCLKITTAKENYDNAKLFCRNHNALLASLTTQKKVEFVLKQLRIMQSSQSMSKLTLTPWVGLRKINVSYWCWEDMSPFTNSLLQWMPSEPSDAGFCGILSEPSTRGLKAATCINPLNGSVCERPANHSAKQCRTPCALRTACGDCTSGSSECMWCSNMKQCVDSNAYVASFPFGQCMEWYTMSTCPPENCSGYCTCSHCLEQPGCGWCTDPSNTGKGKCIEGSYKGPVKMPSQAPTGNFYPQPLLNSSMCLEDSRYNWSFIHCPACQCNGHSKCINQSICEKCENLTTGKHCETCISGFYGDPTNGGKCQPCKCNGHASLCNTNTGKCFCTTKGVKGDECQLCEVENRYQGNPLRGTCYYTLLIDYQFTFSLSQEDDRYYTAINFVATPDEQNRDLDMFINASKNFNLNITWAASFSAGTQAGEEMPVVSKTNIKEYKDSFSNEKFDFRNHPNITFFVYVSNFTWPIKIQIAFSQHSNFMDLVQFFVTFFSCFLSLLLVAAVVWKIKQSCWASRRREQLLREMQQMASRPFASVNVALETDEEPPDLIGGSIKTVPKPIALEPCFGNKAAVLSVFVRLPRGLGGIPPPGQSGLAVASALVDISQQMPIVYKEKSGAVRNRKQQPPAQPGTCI

| IC50 [1] [nM] | In vivo DPIV-inhibition at tmax, i.v. [2] [%] | In vivo DPIV-inhibition at tmax, p.o. [2] [%] | inhibition of DP II [3] | inhibition of attractin [4] | SMILES |
| --- | --- | --- | --- | --- | --- |
| 10.2 | 89 | 87 | – | – | Br.CC(=O)OCC(=O)[C@@H]1CCCN1C(=O)[C@@H](NC(=O)[C@H](C)N)C(C)C [H-Ala-Val-Pro-CH2O—CO—CH3*HBr, 2-[(Acetyloxy-methyl)carbonyl]-1-N-[(L)-Alanyl-(L)-Valinyl]-(2S)-pyrrolidine hydrobromide] |
| – | 95 | 68 | No inhibition | – | Br.CC(C)[C@H](NC(=O)[C@H](C)N)C(=O)N1CCC[C@H]1C(=O)COC(=O)c1ccccc1 [H-Ala-Val-Pro-CO—CH2O—CO—Ph*HBr, 2-[(Benzoyloxy-methyl)carbonyl]-1-N-[{(L)-Alanyl}-(L)-Valinyl]-(2S)-pyrrolidine hydrobromide] |
| 579 | – | – | – | No inhibition | Br.CC(=O)[C@@H]1CCCN1C(=O)[C@@H](NC(=O)[C@H](C)N)C(C)C [H-Ala-Val-Pro-Me*HBr, 2-Methylcarbonyl-1-N-[(L)-Alanyl-(L)-Valinyl]-(2S)-pyrrolidine hydrobromide] |

Source: patent publication US7608577B2, “Peptidyl ketones as inhibitors of DPIV” (OSI Pharmaceuticals, Inc., priority 2001, dated 2009)
